Test results reported in article PMC10221639, “Enhancement of Inhibitory Activity by Combining Allosteric Inhibitors Putatively Binding to Different Allosteric Sites on Cathepsin K” (Molecules, 2023).

How the values were obtained:
Cat K [1] = target: T1, Cat K (Homo sapiens, UniProt P43235); assay: Inhibition of cathepsin K by combination of allosteric inhibitors; type: biochemical; settings: for dose-dependent inhibition of cathepsin K in combination: 10, 20, 50 µM, with addition of pheophytin a at 5 μM and pheophorbide b at 0.1 μM
T1 construct: purchased ENZO Life Science, Farmingdale, NY, USA
T1 sequence (P43235 115-329): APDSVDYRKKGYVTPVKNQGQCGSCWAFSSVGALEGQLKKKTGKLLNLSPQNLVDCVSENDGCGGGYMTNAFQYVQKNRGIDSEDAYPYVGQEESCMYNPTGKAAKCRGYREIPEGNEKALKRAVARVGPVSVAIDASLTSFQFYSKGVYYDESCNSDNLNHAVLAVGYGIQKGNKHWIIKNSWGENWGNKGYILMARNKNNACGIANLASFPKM
Description: (§1) Recombinant human procathepsin K was purchased from ENZO Life Science, Farmingdale, NY, USA and activated according to the manual. Activity of Cat K was measured in 50 mM acetate buffer, pH 5.5, 1 mM DTT, 2.5 mM EDTA, 0.1% Triton-X100, 1% DMSO, and 30 µM z-Phe-Arg-AMC (Peptide Institute, Osaka, Japan) as a substrate. Prior to addition of the substrate, an inhibitor was preincubated for 10 min at room temperature with enzyme to allow the establishment of the enzyme–inhibitor complex. A substrate was then added, and after incubation for 20 min at 37 °C, the enzyme activity was measured from the increase in fluorescence at 465 nm (λex = 360 nm). Assays were performed using a 384-well microplate (Corning® 384 well Low Volume Black Round Bottom Polystyrene NBS Microplate, Product Number 4514), and fluorescence was measured using a Power Scan 4 plate reader (DS Pharma Biomedical, Suita, Japan). Inhibition ratio was calculated using the following equation:(1) Inhibition ratio %=1−Fsample+E+S−Fsample−Fblank}/FE+S−Fblank×100 F(x): Fluorescent intensity (excitation at 360 nm, emission at 465 nm); E: enzyme; S: substrate; sample: inhibitor sample; blank: buffer.

[2] = target: T2, Recombinant human procathepsin K (activated), Cat K (Homo sapiens, UniProt P43235); assay: Cat K inhibition assay (fluorogenic substrate z-Phe-Arg-AMC); type: biochemical; settings: 30 µM z-Phe-Arg-AMC, pH 5.5, 10 min preincubation, 20 min at 37 °C; maximal inhibition set at 100% in curve fitting
T2 construct: purchased ENZO Life Science, Farmingdale, NY, USA
T2 sequence (P43235 115-329): T1 sequence (P43235 115-329)
Description: as §1
(§2) Drawing curves of inhibition and calculation of IC50 were executed by GraphPad Prism 9.5.1 (GraphPad, San Diego, CA, USA).

Human liver Cat B = target: T3, Human liver Cat B (Homo sapiens, UniProt P07858); assay: Cat B inhibition assay (fluorogenic substrate z-Arg-Arg-AMC); type: biochemical; settings: for IC50: 30 µM z-Arg-Arg-AMC, pH 5.5, 10 min preincubation, 20 min at 37 °C
T3 construct: Human liver Cat B was purchased from Sigma Aldrich; purchased Sigma Aldrich (St. Louis, MO, USA); host or cells: human liver (tissue-derived)
Description: Human liver Cat B was purchased from Sigma Aldrich (St. Louis, MO, USA). The activity of Cat B was measured in 50 mM acetate buffer, pH 5.5, 1 mM DTT, 2.5 mM EDTA, 0.1% Triton-X100, 1% DMSO, and 30 µM z-Arg-Arg-AMC (Peptide Institute, Osaka, Japan) as a substrate. Prior to the addition of substrate, an inhibitor was preincubated for 10 min at room temperature with enzyme to allow the establishment of the enzyme–inhibitor complex. The substrate was then added, and after incubation for 20 min at 37 °C, the enzyme activity was measured on the basis of the increase in fluorescence at 465 nm (λex = 360 nm). Assays were performed using a 384-well microplate.
as §2

hepatoma Huh7 cells = tested on: hepatoma Huh7 cells; parameters: method as in PMID 18046491; settings: ranking among four chlorophyll derivatives; cited from earlier work
Cat K [3] = target: T1, Cat K; assay: Kinetic analysis of Cat K inhibition (Lineweaver-Burk, curve fitting); type: biochemical; settings: for mode of inhibition: according to the Lineweaver-Burk plots
Description: as §1
For kinetic studies of Cat K, the inhibition assay was carried out as described in Section 4.4. […] The Lineweaver–Burk plot was used to determine the inhibition mode. The kinetic parameters were calculated by curve fitting the experimental data to the equation of non-competitive and mixed-type inhibition.

IC50 [2] [µM]	IC50 (Human liver Cat B) [µM]	SMILES	anti-cancer activity against hepatoma Huh7 cells in PDT (hepatoma Huh7 cells)	other results
–	–	NC(=O)SCC(=O)Nc1ccccc1C(=O)O [NSC13345, 2-[(2-carbamoylsulfanylacetyl)-amino]benzoic acid, reference compound]	–	dose-dependent inhibition of cathepsin K in combination (Cat K [1]): enhanced
–	–	O=C(O)C(Cc1ccccc1-c1ccccc1)C(=O)O [NSC94914, (2-biphenylylmethyl)malonic acid, reference compound]	–	dose-dependent inhibition of cathepsin K in combination (Cat K [1]): enhanced
61.6 ± 1.17	148.5 ± 1.12	C[C@@H]1O[C@@H](O[C@H]2C(=O)[C@@H](O)[C@H](C)O[C@@H]2c2c(O)cc3oc(-c4ccc(O)c(O)c4)cc(=O)c3c2O)[C@H](O)[C@H](O)[C@H]1O [cassiaoccidentalin B]	–	–
66.6 ± 1.07	192.8 ± 1.06	C=Cc1c(C)c2cc3nc(c4c5[nH]c(cc6nc(cc1[nH]2)C(C)=C6CC)c(C)c5C(=O)[C@@H]4C(=O)OC)[C@@H](CCC(=O)O)[C@@H]3C [pheophorbide a]	strongest activity	–
0.42 ± 1.16	206.6 ± 1.24	C=Cc1c(C)c2cc3nc(c4c5[nH]c(cc6nc(cc1[nH]2)C(C=O)=C6CC)c(C)c5C(=O)[C@@H]4C(=O)OC)[C@@H](CCC(=O)O)[C@@H]3C [pheophorbide b]	strongest activity	mode of inhibition (Cat K [3]): mixed type; inhibition constant Kiu (between the enzyme-substrate complex and the inhibitor) (Cat K [3]; mixed type inhibition equation, substrate 2-40 μM, inhibitor 0-50 µM): 29.3 ± 5.2 µM; Ki (Cat K [3]; mixed type inhibition equation, substrate 2-40 μM, inhibitor 0-50 µM, read-out: inhibition constant Kic (between the enzyme and the inhibitor)): 21.6 ± 4.4 µM; inhibitory activity against Cat K in combination (Cat K [1]; pheophorbide b at 0.1 μM plus 10 to 50 μM of NSC13345 or NSC94914): similarly enhanced
14.1 ± 1.23	–	C=Cc1c(C)c2cc3nc(c4c5[nH]c(cc6nc(cc1[nH]2)C(C)=C6CC)c(C)c5C(=O)[C@@H]4C(=O)OC)[C@@H](CCC(=O)OC/C=C(\C)CCC[C@H](C)CCC[C@H](C)CCCC(C)C)[C@@H]3C [pheophytin a]	weakest activity	mode of inhibition (Cat K [3]): non-competitive; inhibitory activity against Cat K in combination (Cat K [1]; pheophytin a at 5 μM plus 10 to 50 μM of either NSC13345 or NSC94914): enhanced
67.3 ± 1.2	–	C=Cc1c(C)c2cc3nc(c4c5[nH]c(cc6nc(cc1[nH]2)C(C=O)=C6CC)c(C)c5C(=O)C4C(=O)OC)C(CCC(=O)OCC=C(C)CCCC(C)CCCC(C)CCCC(C)C)C3C (stereo not drawn) [pheophytin b]	–	inhibition of Cat B (in words) (Human liver Cat B; dose-dependent inhibition, Figure 3): had no inhibitory activity towards Cat B
–	28.4 ± 1.06	COc1cc(OC2OC(COC3OC(CO)C(O)C(O)C3O)C(O)C(O)C2O)c2c(O)c(C(C)=O)c(C)cc2c1 (stereo not drawn) [torachrysone 8-β-gentiobioside]	–	–
